Laboratory results reported in the NIST ThermoML archive (doi:10.1021/acs.jced.5b01075).
“And” between values parts separate entries of the source, which are not always exact repeats. Equal values may be shown once. ± gives the expanded uncertainty stated by the source.

Conditions: 101.33 kPa, Liquid; for speed of sound: Sing-around technique in a fixed-path interferometer; for mass density: Vibrating tube method

Cc1ccccc1 [toluene]
Conditions	mass density	speed of sound [m/s]
293.15 K	866.816 ± 0.16 kg/m3 and 866.8 ± 0.4 kg/m3	1326.5 ± 0.7
303.15 K	857.497 ± 0.16 kg/m3 and 857.5 ± 0.4 kg/m3	1283.5 ± 0.7
313.15 K	848.114 ± 0.16 kg/m3 and 848.1 ± 0.4 kg/m3	1241 ± 0.7
323.15 K	838.661 ± 0.17 kg/m3 and 838.7 ± 0.4 kg/m3	1198.9 ± 0.6
333.15 K	829.124 ± 0.17 kg/m3 and 829.1 ± 0.4 kg/m3	1157.5 ± 0.6
343.15 K	819.5 ± 0.4 kg/m3	–
353.15 K	809.7 ± 0.4 kg/m3	–
